# From patent US9144570B2, “Method to enhance delivery of glutathione and ATP levels in cells” (Max International LLC, priority 2004, dated 2015)
# “Also recorded” adds a separate entry of the source.
# How the values were obtained:
# mice [1] = conditions: cited from earlier work
# Rat hepatocytes [2] = assay: Inhibitory effect of BSO on GSH elevation elicited by L-cysteine prodrugs in rat hepatocytes; type: cell-based
# Protocol: (§1) Rat hepatocytes were isolated following the methods of P. O. Seglen, Exper. Cell Res., 74, 450 (1972). After final plating, the hepatocytes were maintained in culture for 24 hr prior to use. Only primary cultures were used throughout the studies. […] Total GSH content (GSH+GSSG) was determined by a modification of the DTNB [5,5′-dithiobis(2-nitrobenzoic acid)] glutathione reductase recycling method of F. Tietze, Anal. Biochem., 27, 502 (1969). The GSH concentration in the sample was quantified by determining the cycling rate (ΔOD at 412 nm/min) of the sample.
# Rat hepatocytes [3] = assay: Glutathione content of isolated rat hepatocytes after incubation with L-cysteine prodrugs; type: cell-based; conditions: for [GSH] Rel. to Controls. / [GSH] ± SE: 4-hr incubation, RibCys 1.0 mM, NAC 2.5 mM; for [GSH] ± SE: total GSH (GSH+GSSG)
# Protocol: as §1
# mice [4] = conditions: RibCys 8 mmol/kg; cited from earlier work
# mice [5] = conditions: RibCys; 1 g/kg in mice; cited from earlier work
# tumor-bearing CDF1 mice = conditions: 8 mmol/kg i.p., cited from earlier work
# human subjects = conditions: administered directly to human subjects, wide dosage ranges; cited from earlier work
# healthy human subjects = conditions: oral, 8-10 g per day, adult; cited from earlier work
# canine heart = conditions: cited from earlier work
# [6] = prodrug 1.0 mM, cells pre-exposed to BSO 0.2 mM
smiles,measurement,setting,value
"CC1N[C@H](C(=O)O)CS1 (stereo partly drawn) [2(R,S)-methyl-thiazolidine-4R-carboxylate]",protection of mice from hepatotoxic dosages of acetaminophen,mice [1],protect mice from heptatotoxic dosages of acetaminophen
"CCCCCC1N[C@H](C(=O)O)CS1 (stereo partly drawn) [2(R,S)-n-pentyl-thiazolidine-4R-carboxylate]",protection of mice from hepatotoxic dosages of acetaminophen,mice [1],protect mice from heptatotoxic dosages of acetaminophen
"CCCC1N[C@H](C(=O)O)CS1 (stereo partly drawn) [2(R,S)-n-propyl-thiazolidine-4R-carboxylate]",protection of mice from hepatotoxic dosages of acetaminophen,mice [1],protect mice from heptatotoxic dosages of acetaminophen
"CCCCS(=N)(=O)CCC(N)C(=O)O (stereo not drawn) [BSO, Buthionine Sulfoximine]",[GSH] Rel. to Controls.,"Rat hepatocytes [2]; BSO 0.2 mM alone, no prodrug",0.5
same,[GSH] ± SE,"Rat hepatocytes [2]; BSO 0.2 mM alone, no prodrug",18.4 ± 2.08 nmol/10^6 cells
O=C1N[C@H](C(=O)O)CS1 [L-2-oxothiazolidine-4-carboxylate],protection of mice from hepatotoxic dosages of acetaminophen,mice [1],protect mice from heptatotoxic dosages of acetaminophen
"CC(=O)N[C@@H](CS)C(=O)O [N-Acetyl-L-cysteine (NAC), N-Acetyl-L-cysteine]",[GSH] Rel. to Controls.,Rat hepatocytes [2]; [6],0.7
same,[GSH] ± SE,Rat hepatocytes [2]; [6],25.5 ± 1.59 nmol/10^6 cells
same,[GSH] Rel. to Controls.,Rat hepatocytes [3],1.3
same,GSH levels raised by,"Rat hepatocytes [3]; NAC, 2.5 times the concentration of the thiazolidine prodrugs",30%
same,[GSH] ± SE,Rat hepatocytes [3],45.8 ± 1.27 nmol/10^6 cells
same,protection of mice from hepatotoxic dosages of acetaminophen,mice [1],protect mice from heptatotoxic dosages of acetaminophen
"O=C(O)[C@@H]1CSC(C(O)C(O)C(O)CO)N1 (stereo partly drawn) [RibCys, 2(R,S)-D-ribo-1′,2′,3′,4′-Tetrahydroxybutylthiazolidine-4(R)-carboxylic Acid]",[GSH] Rel. to Controls.,Rat hepatocytes [2]; [6],0.5
same,[GSH] ± SE,Rat hepatocytes [2]; [6],16.2 ± 3.60 nmol/10^6 cells
same,protection of mice exposed to cyclophosphamide,mice [4],deliver effective protective amounts of cysteine to mice exposed to cyclophosphamide
same,protection against radiation-induced bowel injury,mice [5],protect the large and small bowel against radiation injury; also recorded: protect mice against irradiation-induced bowel injury
same,[GSH] Rel. to Controls.,Rat hepatocytes [3],about 1.7
same,[GSH] Rel. to Controls.,Rat hepatocytes [3]; listed as RibCys (Ia),1.7
same,[GSH] ± SE,Rat hepatocytes [3],61.2 ± 1.52 nmol/10^6 cells
same,protection against acetaminophen hepatic and renal toxicity,"mice [1]; RibCys, 2 g/kg in mice",effective to protect against acetaminophen-induced hepatic and renal toxicity; also recorded: protect mice against acetaminophen hepatic and renal toxicity
same,GSH in the liver compared to untreated controls,tumor-bearing CDF1 mice; 16-h time point,1.5 fold
same,GSH in bladder relative to controls,tumor-bearing CDF1 mice; maximal GSH content,2.1 fold
same,GSH in muscle relative to control animals,tumor-bearing CDF1 mice; maximal GSH content,2.5 times
same,Kidney GSH relative to control values,tumor-bearing CDF1 mice; maximal at 16 h,1.6 times control values
same,GSH in implanted L1210 tumors relative to controls,tumor-bearing CDF1 mice,1.2 fold
O=C[C@H](O)[C@H](O)[C@H](O)CO [ribose],toxicity,human subjects,essentially non-toxic
same,exercise capacity,healthy human subjects,increase exercise capacity
same,decrease in the ATP recovery time,"canine heart; 80 mM ribose in normal saline, about 1 ml/min for about 24.0 hours, about 550-700 mg/kg",eight-fold decrease
same,recovery of ATP levels in heart recovering from ischemia,canine heart; intravenous perfusion,recovery of ATP levels is enhanced
same,ATP levels in dogs subjected to ischemia (heart attack model),canine heart; ribose about 3 g/day for at least 5 days,effectively restored and maintained ATP levels
